Reference: patent US6514942B1, “Methods and compositions for stimulating T-lymphocytes” (The Board of Regents, The University of Texas System, priority 1995, dated 2003)
“Also recorded” adds a separate entry of the source. Values belong to the sequence of their own block, whether it stands above or below them.

Legend:
HLA-A2 of T2 cells = target: T1, HLA-A2 of T2 cells (Homo sapiens, UniProt P04439, D140Y/D185E/D98H/E176V/E277Q/G131W/G231S/I119V/I121R/I166T/I218V/L300P/L318F/N151K/N90K/P208A/P217A/Q86G/Q94H/R138H/R169H/T345S); test: Reactivity of MA2.1 mAb with T2 cells after culture with peptide (immunofluorescence, FL1); assay type: cell-based; conditions: for FL1 of T2 cells stained with MA2.1 mAb: peptide 50 μg/ml, overnight culture in IMDM-FCS
T1 construct: cell surface expression of HLA-A2 is lower (30-40%) than in normal LBL lines transfected with HLA-A2; endogenous in cells; host or cells: T2 (transport deletion mutant) human lymphoblastoid cells, obtained from Dr. Peter Creswell
Procedure: FIG. 5A. Effects of HER-2 peptides on reactivity of MA2.1 mAb with T2 cells. Fluorescence analysis and determination of FL1 were performed as described (Stauss et al., 1992). Peptides were added to T2 cells at 50 μg/ml (final concentration). After overnight culture, in IMDM-FCS, cells were washed and the levels of HLA-A2 expression were determined using HLA-A2 specific mAb.
mAbs to CD3 (OKT3-FITC), CD4 (OKT4-FITC) and CD8 (OKT8-FITC) were obtained from Ortho Diagnostic (Ortho, Raritan, N.J.), mAb W6/32 (anti-HLA, -A, -B, -C) from Dako (Dako-Dakopatts, Denmark); HLA-A2 reacting mAb BB7.2 and MA2.1 from ATCC. Immunofluorescence studies were performed as described in Example 1.
To determine whether these peptides and longer analogs affect HLA-A2 conformation as an indication of HLA-A2 binding, the effects of HER-2 peptides on the reactivity of conformationally dependent mAb MA2.1 and BB.7.2 were examined with HLA-A2 of T2 cells. The human cell line T2 has a defect affecting endogenous peptide loading of MHC class I molecules. As a consequence, cell surface expression of HLA-A2 is lower (30-40%) than in normal LBL lines transfected with HLA-A2 (e.g., C1R) but the reactivity of MA2.1 and BB.7.2 mAb is increased when certain HLA-A2 binding peptides are added to the culture medium (Anderson et al., 1993). Although most human MHC class I molecules cannot be induced at the low temperatures used for their murine counterparts because of fundamental structural differences between human and mouse class I (Anderson et al., 1993), the fact that they express few endogenous (mainly signal) peptides (Zweerink et al., 1993) increases the sensitivity of detection of peptide-HLA-A2 interaction.

[1] = target: T2, HLA-A2 on indicator T2 cells (Homo sapiens, UniProt P04439, D140Y/D185E/D98H/E176V/E277Q/G131W/G231S/I119V/I121R/I166T/I218V/L300P/L318F/N151K/N90K/P208A/P217A/Q86G/Q94H/R138H/R169H/T345S); test: Stabilization of HLA-A2 expression on indicator line T2; assay type: cell-based; conditions: indicator T2 cells
T2 construct: cell surface expression of HLA-A2 is lower (30-40%) than in normal LBL lines transfected with HLA-A2; endogenous in cells; host or cells: T2 (transport deletion mutant) human lymphoblastoid cells, obtained from Dr. Peter Creswell
Text: Since HER-2 is a self-antigen, during thymic selection, a number of T-cells carrying receptors with high affinity for the HLA-peptide complex are silenced either by elimination ro tolerization. A pre-condition for induction of a high affinity TCR-(MHC+peptide) interactions, is a stable (MHC+peptide) complex. […] However, stabilization of HLA-Class I binding by exogenously added peptide is dependent on introduction of dominant anchors in positions P2 and P9 which are not recognized by TCR.
Peptide D113, […] (SEQ ID NO:17), is the natural nonapeptide […].

C1R:A2 cells [2] = test: In vitro induction of peptide-reactive CTL from PBMC, 51Cr release on peptide-pulsed C1R:A2; assay type: cell-based, human; conditions: PBMC stimulated with the peptide
[3] = tested on: OVA-16 (HLA-A2+, HER-2high) ovarian tumor; test: Cold target inhibition of OVA-16 lysis by 41.CD8+ CTL with peptide-pulsed C1R:A2 cells; assay type: cell-based, human; conditions: cold:hot 2:1, E:T 10:1, 4- and 20-h assays
Procedure: FIG. 4A. Target specificity of the 41.CD8^+ CTL were tested for the ability to lyse 5^1Cr-labeled OVA-16 at an E:T ratio of 10:1. C1R:A2 cells (A2.1) were incubated with synthetic peptides (D125, C43, C85), washed, and used in cold target inhibition studies at a cold:hot ratio of 2:1. Cytotoxicity studies were performed for 5 hr. Results represent the mean of three determinations. The variability between samples was less than 10%. The differences between determination are statistically significant (P<0.03) as determined by Student's t test. Percentage inhibition is indicated in parentheses.
FIG. 4B. Target specificity of the 41.CD8^+ CTL were tested for the ability to lyse ^51Cr-labeled OVA-16 at an E:T ratio of 10:1. C1R:A2 cells (A2.1) were incubated with synthetic peptides (D125, C43, C85), washed, and used in cold target inhibition studies at a cold:hot ratio of 2:1. Cytotoxicity studies were performed for 20 hr. Results represent the mean of three determinations. The variability between samples was less than 10%. The differences between determination are statistically significant (P<0.03) as determined by Student's t test. Percentage inhibition is indicated in parentheses.
(§1) Tumor cells and fibroblasts were labeled with 200 μCi of ^51Cr (Na^51CrO4; Amersham, Arlington Heights, Ill.) for 90 min at 37° C. (Ioannides et al., 1991). Lymphoblastoid cells and HLA-A2 transfectants were labeled overnight in RPMI-FCS, then washed three times and incubated with effector cells in RPMI-FCS in an incubator with 5%. CO2 (Bednarek et al., 1991; Gammon et al., 1992). When peptide recognition was determined, targets were incubated with 25 μM of peptides overnight during ^51Cr labeling or with 10 μM peptide for 2 h at 37° C. in RPMI-FCS then washed three times before being incubated with effector cells. Separate controls for spontaneous and total lysis were made for each peptide-pulsed target (Ioannides et al., 1991; Bednarek et al., 1991; Gammon et al., 1992). After 4-5 h, 100 μl of supernatant was collected and counted. To determine maximum lysis in 20-h assays, plates were left undisturbed in the incubator and the supernatant was collected after overnight incubation. For cold target inhibition studies, C1R:A2 cells were preincubated with HER-2 or control peptides overnight, then washed and admixed with ^51Cr-labeled targets at 2:1 and 6:1 (cold:hot targets) ratios. Percentage lysis was calculated from the formula: 100×[(E−S)/(T−S)], where E is experimental release, S is release in the absence of CTL, and T is release in 2 M HCl.
To confirm that the 41.CD8^+ CTL line recognizes epitopes on HER-2^high tumors contained on peptides used for stimulation, cold target inhibition studies were performed. […]

C1R:A2 cells [4] = test: Ag specificity of the 41.CD8+ CTL line on peptide-pulsed targets; assay type: cell-based, human; conditions: peptide-pulsed C1R:A2, E:T 10:1
Procedure: FIG. 2A. Ag specificity of the 41.CD8^+ CTL line. C1R:A2 cells were pre-pulsed with either HER-2 peptides or control MUC-1 peptides before being incubated with effectors. The effector to target ratio was 10:1. C1R:A1 and C1R:A3 targets were pre-pulsed with the same peptides in the same conditions as C1R:A2 cells. Results for C1R:A1 and C1R:A3 show the difference between specific lysis of targets preincubated with peptides and control C1R:A1 and C1R:A3 targets. Specific lysis of control C1R:A1 and C1R:A3 cells was less than 10% at the same E:T ratio. Shown in FIG. 2A are results after 4 hrs' incubation.
as §1
These cultures were propagated and expanded by periodic cycles of restimulation with peptide-pulsed fresh autologous PBMC as antigen-presenting cells. After the fourth stimulation cells were gradually adapted to growth in RPMI-FCS by replacing 25% of the culture medium every 3 days with RPMI-FCS over a period of 2 weeks. CD3^+CD8^+CD4^− cells were isolated from bulk CTL cultures by positive selection on anti-CD8 mAb-coated culture flasks (AIS Micro CELLector, Applied Immune Sciences, Menlo Park, Calif.) as described (Letessier et al., 1991). Isolated CD8^+ cells were restimulated with HER-2 peptide-pulsed PBMC, either autologous or in some instances allogeneic that matched only HLA-A2 with the responding cells. […]

CTL-34 = test: Recognition of HER-2 peptides by ovarian tumor associated CTL (lysis of peptide-sensitized targets); assay type: cell-based, human
Procedure: Target cells were labeled with ^51Cr (Na^51CrO4; Amersham, Arlington Heights, Ill.) for 90 min at 37° C. (Ioannides et al., 1991; Ioannides et al., 1991), or overnight in RPMI medium, containing 10% FCS, 100 μg/ml L-glutamine and 40 μg/ml gentamycin (RPMI-FCS), then washed and incubated with the effector cells in complete RPMI-FCS in an incubator with 5% CO2. Targets were incubated either with 25 μM of peptide overnight during labeling, or with 10 μM peptide for 2 h at 37° C. in RPMI-FCS, then washed three times before being incubated with effector cells. Separate controls for spontaneous and total lysis of targets were made for each peptide pulsed target (Ioannides et al., 1993; Fisk et al., 1994; Gammon et al., 1992). After 4-5 h of incubation 100 μl of supernatant were collected and counted. Percent lysis was calculated from the formula: 100×[(E−S)/(T−S)], were E=experimental release, S=release in the absence of CTL, T=release in 2 M HCl.

three HLA-A2+ CTL lines = test: Recognition of nonapeptides by CTLs associated with and lysing ovarian tumors; assay type: cell-based, human; conditions: for CTL lines recognizing the peptide: of three HLA-A2+ CTL lines; for designation based on the levels of lysis induced: three HLA-A2+ CTL lines

Sequence: DLGMGAAKGL [Peptide D99, decapeptide HER-2:1089-1098]
FL1 of T2 cells stained with MA2.1 mAb (HLA-A2 of T2 cells): slight increase in FL1

Sequence: RLLYQGCQVV [Peptide D114, HER-2:47-56(48H→L) analog]
stabilization of HLA-A2 [1]: little improvement on stabilization of HLA-A2 | FL1 of T2 cells stained with MA2.1 mAb (HLA-A2 of T2 cells): increased FL1 even further; also recorded: higher increase in reactivity of MA2.1 mAb with HLA-A2 than D96/D97 | reactivity of MA2.1 mAb with HLA-A2 (HLA-A2 of T2 cells; study repeated with peptides dissolved in DMSO): unable to increase reactivity | Ag specificity of CTL response induced by the peptide (C1R:A2 cells [2]): lacked Ag specificity

Sequence: GLTSAPDTRV [Peptide D125, control analog of Muc-1 core peptide (Muc-1:8-17) with introduced HLA-A2 anchors, reference compound]
inhibition of tumor lysis by peptide-pulsed cold targets [3]: inability of C1R:A2 cells alone or pulsed with D125 to mediate the same inhibition | recognition by 41.CD8+ CTL line (C1R:A2 cells [4]): at a much lesser extent

Sequence: CLTSTVQLV [Peptide E90, HER-2:788-796]
% of C85 (target lysis by CTL in the presence of peptide as % of positive control C85) (CTL-34): 1.149 % of C85

Sequence: VLVKSPNHV [Peptide E89, HER-2:851-859]
CTL lines recognizing the peptide (three HLA-A2+ CTL lines): 2/3 | designation based on the levels of lysis induced (three HLA-A2+ CTL lines): high | % of C85 (target lysis by CTL in the presence of peptide as % of positive control C85) (CTL-34): 1.149 % of C85

Sequence: SLADPAHGV [Peptide D132, control analog of Muc-1 core peptide with introduced P2 anchor, reference compound]
recognition by 41.CD8+ CTL line (C1R:A2 cells [4]): at a much lesser extent

Sequence: RIAWARTEL [Peptide E37, reference compound]
FL1 of T2 cells stained with MA2.1 mAb (HLA-A2 of T2 cells): failed to affect MA2.1 epitope expression

Sequence: ELVSEFSKV [Peptide C83, C85 analog with strengthened P9 and P8]
FL1 of T2 cells stained with MA2.1 mAb (HLA-A2 of T2 cells): did not increase further the FL1

Sequence: QLMPYGCLL [Peptide E71, HER-2:798-806]
CTL lines recognizing the peptide (three HLA-A2+ CTL lines): 2/3 | designation based on the levels of lysis induced (three HLA-A2+ CTL lines): high | % of C85 (target lysis by CTL in the presence of peptide as % of positive control C85) (CTL-34): 0.600 % of C85

Sequence: PLQPEQLQV [Peptide E77, HER-2:391-399]
CTL lines recognizing the peptide (three HLA-A2+ CTL lines): 2/3 | designation based on the levels of lysis induced (three HLA-A2+ CTL lines): moderate | % of C85 (target lysis by CTL in the presence of peptide as % of positive control C85) (CTL-34): 0.300 % of C85

Sequence: QLQVFETLEEI [Peptide D122, HER-2:396-406]
FL1 of T2 cells stained with MA2.1 mAb (HLA-A2 of T2 cells): increased the FL1 only slightly

Sequence: LVSEFSRMARDPQ [Peptide B69, HER-2:972-984]
FL1 of T2 cells stained with MA2.1 mAb (HLA-A2 of T2 cells): failed to significantly increase FL1

Sequence: LQVFETLEEITGYL [Peptide D120, HER-2:397-410]
FL1 of T2 cells stained with MA2.1 mAb (HLA-A2 of T2 cells): increased the FL1 only slightly

Further lines, results first:

FL1 of T2 cells stained with MA2.1 mAb (HLA-A2 of T2 cells): failed to induce an increase in FL1
Sequence: LLSLALMLL [Peptide E41, reference compound]

FL1 of T2 cells stained with MA2.1 mAb (HLA-A2 of T2 cells): very high increase in FL1
Sequence: NLGPWIQQV [Peptide E38, reference compound]

FL1 of T2 cells stained with MA2.1 mAb (HLA-A2 of T2 cells): failed to induce an increase in FL1
Sequence: SLALMLLWL [Peptide E40, reference compound]

FL1 of T2 cells stained with MA2.1 mAb (HLA-A2 of T2 cells): moderate increase in FL1
Sequence: EIWTHSTKV [Peptide E39, reference compound]
